{"source": "patent US20250302913A1", "about": "“LACRIPEP PROMOTES NEUROREGENERATION AND MAINTAINS EPITHELIAL PROGENITOR CELL IDENTITY” (The Regents of The University of California, priority 2022, published 2025)", "key": {"[1]": {"test_system": "Rest, Isl1, Rreb1 regulons", "assay": "iRegulon transcription factor-gene target regulatory network analysis", "parameters": "species or system mouse", "conditions": "day 7; lacripep vs PBS; NES>3", "excerpt": "To identify candidate transcription factors that regulate these gene sets, we performed transcription factor (TF)-gene target regulatory network analysis using iRegulon (37). iRegulon identifies transcription factor-binding motifs that are enriched in the genomic regions of a query gene set and predicts transcription factors that bind to them. […] ISL1 plays an essential role in the generation of sensory and sympathetic neurons (38 39), REST is a master regulator of neurogenesis that plays a role in modulating synaptic plasticity (40-42) and RREB1 regulates axon injury (43). […] The Isl1 exclusive gene set was also extensively enriched in genes involved with functional and structural nerve-mediated processes including visual perception (P=3.5E-27, e.g., Capb4, Vsx1), response to stimulus (P=9.7E-19; e.g., Slc17a7, Ush2a), synapse (P=9.4E-8, e.g. Magi2, Synpr) and neuron projection (P=6.4E-6, e.g., Cdh23, Kif1a) (FIG. 4F).\nTo identify regulatory networks underlying the impact of lacripep on tissue regeneration, we used the cytoscape application iRegulon (37) to predict master regulators, i.e., transcription factors whose regulons (transcriptional target sets) are highly enriched with the input gene list."}, "[2]": {"test_system": "ZO1", "assay": "Immunofluorescent quantification of tight junction protein ZO1 in corneal epithelium", "assay_type": "in vivo, mouse", "conditions": "day 15; Aire KO cornea", "excerpt": "As dry eye results in disruption of ocular surface integrity resulting in cornea barrier dysfunction and, consequently, fluid loss and pathogen invasion (11), we next determined whether lacripep maintains corneal epithelial architecture by analyzing lissamine green uptake at day 7 and 15. […] Restoration of barrier function was further confirmed by analyzing the superficial epithelial layers for the tight junction protein ZO1 which is essential to the structural integrity of the corneal epithelium (12).\nImmunohistological and immunofluorescent analyses of cornea and lacrimal gland samples were performed as previously described (8). […]\nFor immunofluorescent analysis, 7 or 20 μm tissue sections were incubated with the following primary antibodies: mouse anti-ZO1 conjugated to Alexa594 (1:1000, Life Technologies, Cat 339194), rabbit anti-KRT6A (1:800, Cell Signaling, Cat 4912S), chicken anti-KRT14 (1:1500, Santa Cruz, Cat 515882), rat anti-Ki67 (1:200, Biolegend, 652405), rat anti-CD4 (1:200, Santa Cruz), rabbit anti-TUBB3 (1:500, Cell Signaling, Cat 5568S), and rat anti-Ecadherin (1:300, Life Technologies, Cat 131900). Antibodies were detected using Cy2-, Cy3- or Cy5-conjugated secondary Fab fragment antibodies (Jackson Laboratories), and nuclei were stained with Hoechst 33342 (1:3000, Sigma-Aldrich). […]\nQuantification of tight junction protein ZO1. […]"}, "[3]": {"test_system": "intraepithelial sensory nerve terminals", "assay": "Intraepithelial sensory nerve terminals by 3D imaging (IMARIS)", "assay_type": "in vivo, mouse", "conditions": "day 7", "excerpt": "We next determined the extent of functional reinnervation of the cornea at day 7 by assessing the distribution of sensory nerve endings (nerve terminals) within the epithelial layers in lacripep-treated Aire KO corneas compared to WT and PBS KO controls (FIG. 3D). Sensory nerve terminals within the corneal epithelium respond to changes in the thickness and stability of the tear film to promote basal tear secretion, while also triggering epithelial responses to restore homeostasis through the release of neurotransmitters. […]\nQuantification of corneal epithelial nerve density and synapses. Tissue sections: TUBB3+ nerve density within 300 μm sections of central cornea epithelial ROI was quantified by applying Tsai's thresholding method (Moments), with integrated densities within the ROI of the thresholded image being recorded. Corneal whole mounts: The density of nerves expressing GAP43, TUBB3, or GAP43 and TUBB3 (% Area of 354 μm×396 μm) was quantified from central cornea images of whole mount cornea and plotted in a stacked bar graph to visualize the proportion of each of the three nerve types. Similarly, numbers of synapses marked by expression of GAP43, TUBB3, or GAP43 and TUBB3 were counted per respective region of central cornea (100 μm2) and plotted in a stacked bar graph. […]\n3D reconstruction of nerve fibers. […] Touching nuclei were split by the calculated seed points inside each area."}}}
{"substance": "Ac-KQFIENGSEFAQKLLKKFSLLKPWA-NH2 [lacripep, amino terminus acetylated, carboxyl terminus aminated]", "values": [{"measurement": "upregulated target genes of Isl1 regulon", "setting": "[1]", "result": 394, "unit": "genes"}, {"measurement": "upregulated target genes of Rest regulon", "setting": "[1]", "result": 184, "unit": "genes"}, {"measurement": "upregulated target genes of Rreb1 regulon", "setting": "[1]", "result": 254, "unit": "genes"}, {"measurement": "ZO1 expression in superficial epithelial layers", "setting": "[2]", "result": "mimicked that of WT controls"}, {"measurement": "intraepithelial sensory nerve terminals", "setting": "[3]; PBS 5, WT 78", "result": 50, "unit": "per 0.1 mm^2"}, {"measurement": "proportion of sensory nerve terminals expressing GAP43 as opposed to only TUBB3", "setting": "[3]; compared to WT controls", "result": "increase"}]}
